Data set [1] concerns Escherichia coli expressing NDM-1 (CLB30016). It counts as cell-based. To be noted: with imipenem 1 μg/ml; 95% inhibition of bacterial growth. A digest of the protocol: (§1)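 Imipenem 1 μg/ml + inhibitor titration in cation-adjusted MHB (1.1× stock medium); overnight-cultured colonies suspended in saline, diluted 1:100. 35 °C, 22–24 h; absorbance read. MITC95 = lowest compound conc giving 95% growth inhibition.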

The test system of data set [2] is Klebsiella pneumoniae expressing VIM-1 (IHMA599644). The format is cell-based. To be noted: with imipenem 1 μg/ml; 95% inhibition of bacterial growth. The gist of the method:
as §1

Data set [3] has as its system Serratia marcescens expressing IMP-1 (CL5741). The format is cell-based. To be noted: with imipenem 1 μg/ml; 95% inhibition of bacterial growth. The gist of the method:
as §1

In data set [4] the test system is P. aeruginosa MB9798 (efflux+, IMP-1 plasmid). As to conditions: for MB9798 MITC95 P. aeruginosa uM Efflux WT: efflux + (MB9798) strain, imipenem at 2 μg/mL, in the presence of a class A, C, D serine β-lactamase inhibitor closely related to relebactam; for Efflux ratio: fold difference between efflux+ (MB9798) and efflux− (MB9799) strains. A digest of the protocol:
(§2)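 PAO1-derived isogenic pair (oprD+, inducible AmpC), efflux+ MB5919 or efflux− MB5890 parent, carrying an electroporated IMP-1 plasmid from a clinical isolate. Microbroth MIC with fixed imipenem and/or ceftazidime (usually CLSI breakpoint) plus fixed class A/C inhibitor; MBL inhibitor serially titrated, concentration restoring susceptibility recorded.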

Data set [5] has as its system P. aeruginosa MB9799 (efflux-, IMP-1 plasmid). It counts as cell-based, Pseudomonas aeruginosa. To be noted: efflux − (MB9799) strain; imipenem at 2 μg/mL; in the presence of a class A, C, D serine β-lactamase inhibitor closely related to relebactam. A digest of the protocol: as §2
The target of another data set is VIM-2 (Escherichia coli, UniProt Q5U7L7). As to the kind of experiment: biochemical. As to conditions: CCF2-FA fluorescence assay; read-out: VIM2 IC50.
The target of the next data set is VIM-1 (Pseudomonas aeruginosa (strain ATCC 15692 / DSM 22644 / CIP 104116 / JCM 14847 / LMG 12228 / 1C / PRS 101 / PAO1), UniProt A0A0F7KYQ8). Kind of data set: biochemical. To be noted: CCF2-FA fluorescence assay, 2 hours at 25° C.; read-out: VIM1 IC50. The gist of the method: (§3)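 In 100 mM phosphate pH 7 containing Tween-20 and ZnSO4, NDM-1 (1 pM), IMP-1 (2 pM) or VIM-1 (30 pM) hydrolysed 1.25 μM CCF2-FA over 2 hours at 25° C with inhibitor present. Readout was 405/460 nm fluorescence.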

The target in the next data set is IMP-1 (Serratia marcescens, UniProt P52699). Kind of data set: biochemical. To be noted: CCF2-FA fluorescence assay, 2 hours at 25° C.; read-out: IMP1 IC50. The gist of the method: as §3
IMP-1, sequence (P52699 whole entry, looked up, species assumed): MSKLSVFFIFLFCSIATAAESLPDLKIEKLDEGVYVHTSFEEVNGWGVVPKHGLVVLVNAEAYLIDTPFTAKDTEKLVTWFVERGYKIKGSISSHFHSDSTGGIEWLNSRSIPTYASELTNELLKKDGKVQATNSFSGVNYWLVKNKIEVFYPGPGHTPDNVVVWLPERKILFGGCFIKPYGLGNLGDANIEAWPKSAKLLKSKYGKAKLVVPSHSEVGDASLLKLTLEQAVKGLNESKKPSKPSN
The target in a further data set is NDM-1 (Klebsiella pneumoniae, UniProt C7C422). As to the kind of experiment: biochemical. The format is biochemical. To be noted: CCF2-FA fluorescence assay, 2 hours at 25° C. The gist of the method: as §3
NDM-1, sequence (C7C422 whole entry, looked up, species assumed): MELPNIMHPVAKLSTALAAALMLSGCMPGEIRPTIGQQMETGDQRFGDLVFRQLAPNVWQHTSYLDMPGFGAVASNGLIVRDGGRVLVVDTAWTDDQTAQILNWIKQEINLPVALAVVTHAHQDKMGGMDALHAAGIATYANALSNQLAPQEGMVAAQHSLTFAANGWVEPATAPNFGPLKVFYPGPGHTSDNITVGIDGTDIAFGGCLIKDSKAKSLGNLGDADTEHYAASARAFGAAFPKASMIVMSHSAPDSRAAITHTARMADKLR

For orientation: IC50 means the concentration needed to halve the response being measured. For the molecule `CN(C)CC1(O)CCN(c2ccc(S(=O)(=O)N[C@@H]3CCNC3)c(S(N)(=O)=O)c2-c2nnn[nH]2)CC1` [Example 100, 4-{4-[(dimethylamino)methyl]-4-hydroxypiperidin-1-yl}-N1-[(3R)-pyrrolidin-3-yl]-3-(1H-tetrazol-5-yl)benzene-1,2-disulfonamide], the “CLB30016 E. coli MITC95 NDM” value in data set [1] is 12.50 µM. Moreover, the “IHMA599644 K. pneumoniae MITC95 VIM” value in [2] turned out to be 12.50 µM. For the same molecule, in data set [3], the “CL5741 S. marcescens MITC95 IMP” value came out at 6.25 µM. Also, the “MB9798 MITC95 P. aeruginosa uM Efflux WT” value in data set [4] came out at 12.50 µM. Further, the Efflux ratio in data set [4] is listed as 2.00. In [5], the “MB9799 MITC95 P. aeruginosa uM Efflux Mutant” value was 6.25 µM. Further, the IC50 on VIM-2 stood at 162 nM; at VIM-1, 12.4 nM; at IMP-1, 37 nM; at NDM-1, 17.5 nM.

Turning to `NC[C@@H](O)CNS(=O)(=O)c1ccc(N[C@@H]2CCC[C@H]2N)c(-c2nn[nH]n2)c1S(N)(=O)=O` [Example 179, N1-((R)-3-amino-2-hydroxypropyl)-4-(((1R,2R)-2-aminocyclopentyl)amino)-3-(2H-tetrazol-5-yl)benzene-1,2-disulfonamide], the “CLB30016 E. coli MITC95 NDM” value in data set [1] was 0.78 µM. Also, the “IHMA599644 K. pneumoniae MITC95 VIM” value in data set [2] was 12.50 µM. In [3], the “CL5741 S. marcescens MITC95 IMP” value was 6.25 µM. Also, the “MB9798 MITC95 P. aeruginosa uM Efflux WT” value in [4] was determined as 25.00 µM. In addition, the Efflux ratio in data set [4] amounted to 4.00. Moreover, in data set [5], the “MB9799 MITC95 P. aeruginosa uM Efflux Mutant” value came to 6.25 µM. For the same molecule, the half-maximal inhibitory concentration (IC50) at VIM-2 turned out to be 83.1 nM; on VIM-1, 49.9 nM; at IMP-1 it was 69.2 nM; against NDM-1 it was 26.2 nM.

As to `NCC=C1CCN(c2ccc(S(=O)(=O)NC[C@H](O)CN)c(S(N)(=O)=O)c2-c2nn[nH]n2)CC1` [Example 204, (R)—N1-(3-amino-2-hydroxypropyl)-4-(4-(2-aminoethylidene)piperidin-1-yl)-3-(2H-tetrazol-5-yl)benzene-1,2-disulfonamide], the “CLB30016 E. coli MITC95 NDM” value in [1] amounted to 0.78 µM. Further, the “IHMA599644 K. pneumoniae MITC95 VIM” value in [2] worked out at 1.56 µM. The “CL5741 S. marcescens MITC95 IMP” value in data set [3] was 1.56 µM. Besides, in [4], the “MB9798 MITC95 P. aeruginosa uM Efflux WT” value stood at 0.78 µM. Besides, the Efflux ratio in data set [4] is listed as 1.00. Further, the “MB9799 MITC95 P. aeruginosa uM Efflux Mutant” value in [5] turned out to be 0.78 µM. The half-maximal inhibitory concentration (IC50) on VIM-2 was determined as 3.44 nM; on VIM-1 it was 0.16 nM; on IMP-1, 1.55 nM; against NDM-1 it was 0.97 nM.

For `NC(=O)C1CCN(c2ccc(S(=O)(=O)N[C@@H]3CCNC3)c(S(N)(=O)=O)c2-c2nn[nH]n2)CCN1` (stereo partly drawn) [Example 165, 1-(4-(N-((R)-pyrrolidin-3-yl)sulfamoyl)-3-sulfamoyl-2-(2H-tetrazol-5-yl)phenyl)-1,4-diazepane-5-carboxamide], in data set [1], the “CLB30016 E. coli MITC95 NDM” value stood at 0.20 µM. The “IHMA599644 K. pneumoniae MITC95 VIM” value in data set [2] came to 1.56 µM. The “CL5741 S. marcescens MITC95 IMP” value in data set [3] came to 0.20 µM. The “MB9798 MITC95 P. aeruginosa uM Efflux WT” value in data set [4] was found to be 1.56 µM. Further, the Efflux ratio in data set [4] was determined as 2.00. The “MB9799 MITC95 P. aeruginosa uM Efflux Mutant” value in data set [5] came out at 0.78 µM. The IC50 on VIM-2 was found to be 2.35 nM; at VIM-1, 0.38 nM; at IMP-1, 2.43 nM; at NDM-1 it was 1.21 nM.

For the molecule `NCC1CCN(c2ccc(S(=O)(=O)N[C@H](CN)CO)c(S(N)(=O)=O)c2-c2nn[nH]n2)CC1` [Example 186, (R)-N1-(1-amino-3-hydroxypropan-2-yl)-4-(4-(aminomethyl)piperidin-1-yl)-3-(2H-tetrazol-5-yl)benzene-1,2-disulfonamide], the “CLB30016 E. coli MITC95 NDM” value in data set [1] was determined as 3.13 µM. Further, the “IHMA599644 K. pneumoniae MITC95 VIM” value in data set [2] was 1.56 µM. Also, the “CL5741 S. marcescens MITC95 IMP” value in [3] was found to be 1.56 µM. Further, the “MB9798 MITC95 P. aeruginosa uM Efflux WT” value in data set [4] was 1.56 µM. Moreover, the Efflux ratio in data set [4] was 2.00. Also, the “MB9799 MITC95 P. aeruginosa uM Efflux Mutant” value in data set [5] came out at 0.78 µM. Moreover, the IC50 is 68.7 nM at VIM-2, 2.85 nM at VIM-1, 40.6 nM on IMP-1 and 18.7 nM at NDM-1.

Regarding `N[C@@H]1CCCN(c2ccc(S(=O)(=O)N[C@@H]3CCNC3)c(S(N)(=O)=O)c2-c2nn[nH]n2)C1=O` [Example 155], in data set [1], the “CLB30016 E. coli MITC95 NDM” value came to 0.39 µM. Also, in [2], the “IHMA599644 K. pneumoniae MITC95 VIM” value was determined as 1.56 µM. For the same molecule, the “CL5741 S. marcescens MITC95 IMP” value in [3] was found to be 3.13 µM. In data set [4], the “MB9798 MITC95 P. aeruginosa uM Efflux WT” value stood at 6.25 µM. Further, the Efflux ratio in data set [4] turned out to be 2.00. In addition, the “MB9799 MITC95 P. aeruginosa uM Efflux Mutant” value in data set [5] is 3.13 µM. Besides, the IC50 at VIM-2 came out at 6.87 nM; on VIM-1, 2.14 nM; at IMP-1, 81.4 nM; at NDM-1 it was 5.12 nM.

With `NC/C=C1\CCCN(c2ccc(S(=O)(=O)NC[C@H](O)CN)c(S(N)(=O)=O)c2-c2nn[nH]n2)C1` (single isomer, unassigned; isomer b) [Example 206], in data set [1], the “CLB30016 E. coli MITC95 NDM” value is 0.78 µM. Also, the “IHMA599644 K. pneumoniae MITC95 VIM” value in data set [2] was determined as 1.56 µM. In addition, the “CL5741 S. marcescens MITC95 IMP” value in data set [3] turned out to be 1.56 µM. In addition, in data set [4], the “MB9798 MITC95 P. aeruginosa uM Efflux WT” value was determined as 6.25 µM. In [4], the Efflux ratio turned out to be 4.00. Besides, in [5], the “MB9799 MITC95 P. aeruginosa uM Efflux Mutant” value is 1.56 µM. The IC50 on VIM-2 worked out at 1.52 nM; on VIM-1, 0.23 nM; at IMP-1, 15.1 nM; at NDM-1, 9.21 nM.

As to `NCCN1CCN(c2ccc(S(=O)(=O)N[C@@H]3CCNC3)c(S(N)(=O)=O)c2-c2nnn[nH]2)CC1` [Example 76, 4-[4-(2-aminoethyl)piperazin-1-yl]-N1-[(3R)-pyrrolidin-3-yl]-3-(1H-tetrazol-5-yl)benzene-1,2-disulfonamide], the “CLB30016 E. coli MITC95 NDM” value in [1] was 1.56 µM. In addition, the “IHMA599644 K. pneumoniae MITC95 VIM” value in data set [2] stood at 3.13 µM. In addition, the “CL5741 S. marcescens MITC95 IMP” value in data set [3] amounted to 3.13 µM. Further, in [4], the “MB9798 MITC95 P. aeruginosa uM Efflux WT” value turned out to be 1.56 µM. Also, the Efflux ratio in data set [4] turned out to be 1.00. In data set [5], the “MB9799 MITC95 P. aeruginosa uM Efflux Mutant” value was 1.56 µM. The half-inhibitory concentration (IC50) stood at 18.1 nM on VIM-2, 1.6 nM at VIM-1, 10.7 nM on IMP-1 and 4.35 nM against NDM-1.

Turning to `NS(=O)(=O)c1c(S(=O)(=O)N[C@@H]2CCNC2)ccc(NCCN2CCOCC2)c1-c1nnn[nH]1` [Example 64, 4-[(2-morpholin-4-ylethyl)amino]-N1-[(3R)-pyrrolidin-3-yl]-3-(1H-tetrazol-5-yl)benzene-1,2-disulfonamide], the “CLB30016 E. coli MITC95 NDM” value in data set [1] turned out to be 1.56 µM. In data set [2], the “IHMA599644 K. pneumoniae MITC95 VIM” value was found to be 6.25 µM. The “CL5741 S. marcescens MITC95 IMP” value in data set [3] was found to be 1.56 µM. Besides, the “MB9798 MITC95 P. aeruginosa uM Efflux WT” value in data set [4] was determined as 25.00 µM. The Efflux ratio in data set [4] turned out to be 15.99. In data set [5], the “MB9799 MITC95 P. aeruginosa uM Efflux Mutant” value turned out to be 1.56 µM. The IC50 came to 8.19 nM on VIM-2, 1.62 nM at VIM-1, 3.26 nM at IMP-1 and 5.51 nM at NDM-1.

Take `NCC(=O)N1CCN(c2ccc(S(=O)(=O)NC[C@H](O)CN)c(S(N)(=O)=O)c2-c2nn[nH]n2)CC1` [Example 119, (R)—N1-(3-amino-2-hydroxypropyl)-4-(4-(2-aminoacetyl)piperazin-1-yl)-3-(2H-tetrazol-5-yl)benzene-1,2-disulfonamide]: the “CLB30016 E. coli MITC95 NDM” value in data set [1] was found to be 0.78 µM. For the same molecule, the “IHMA599644 K. pneumoniae MITC95 VIM” value in data set [2] came out at 1.56 µM. The “CL5741 S. marcescens MITC95 IMP” value in data set [3] was determined as 0.78 µM. Moreover, the “MB9798 MITC95 P. aeruginosa uM Efflux WT” value in data set [4] is 1.56 µM. Also, in data set [4], the Efflux ratio came to 2.00. Besides, in data set [5], the “MB9799 MITC95 P. aeruginosa uM Efflux Mutant” value turned out to be 0.78 µM. Moreover, the IC50 at VIM-2 turned out to be 10.1 nM; on VIM-1 it was 0.57 nM; on IMP-1, 6.56 nM; at NDM-1, 3.45 nM.

The record behind these values is US11207312B2, “Metallo-beta-lactamase inhibitors and methods of use thereof” (priority 2017, dated 2021).
